Experimental data from publication PMC5861220, “The Cytochrome P450-Mediated Metabolism Alternation of Four Effective Lignans From Schisandra chinensis in Carbon Tetrachloride-Intoxicated Rats and Patients With Advanced Hepatocellular Carcinoma” (Frontiers in Pharmacology, 2018).

Columns and labels:
rat liver = assay: In situ hepatic perfusion of four lignans; format: in vivo; settings: hepatic perfusion 60 min, 10 μM, n = 3
Procedure: (§1) In situ liver perfusion was performed similarly as the method described previously (Uraki et al., [2016]). […] The perfusate consisted of Krebs–Hensleit buffer (pH 7.4) containing sodium taurocholate (4.75 mg/L), 1% bovine serum albumin, and glucose (1.2 g/L) was oxygenated using carbogen, 95% O2/5% CO2. The perfusate at 37°C was infused into the portal vein at a flow rate of 30 mL/min in a recirculatory manner. After 10-min equilibration, four schisandra lignans were added to the reservoir (final concentration of 10 μM). Perfusate (0.5 mL) and bile samples were collected at 0, 10, 20, 30, 40, 50, and 60 min after the addition of lignans. The same volume of blank perfusion buffer was immediately added to the reservoir after collection of the perfusate samples. After hepatic perfusion, rat was sacrificed and liver was removed, blotted dry, and weighed.

[1] = In situ hepatic perfusion of four lignans; format: in vivo, rat; settings: Sprague-Dawley, rat, perfusate, perfusate AUC(0−1h), n = 3
Procedure: as §1

P-glycoprotein (P-gp) = assay: P-gp substrate assessment from Caco-2 transport (Papp and ER); format: in vitro ADME; settings: Caco-2 cell monolayer, 5, 10 and 50 μM
Procedure: Caco-2 cell (passage 38) was used in the transport experiments. Cells were seeded on polycarbonate filters (12 mm diameter, pore size […]) at 1 × 10^5/cm^2. The cell monolayer was formed 21 days post seeding when the transepithelial electrical resistance (TEER) was above 1,000 Ω• cm^2. Three concentration levels (5, 10, and 50 μM) were set for the four schisandra lignans in the study. After preincubation for 1 h at 37°C, the solution of the four lignans was respectively added to the apical (0.4 mL) or basolateral (0.6 mL) chamber for absorptive (AP → BL) and secretive (BL → AP) permeability test. At the specified timepoints (0.5, 1, 1.5 and 2 h), 50 μL samples (n = 3) were withdrawn from receiver chamber, and meanwhile, 50 μL fresh buffer was added. The four lignans were determined by HPLC-MS method.
The apparent permeability coefficient (Papp) in the Caco-2 cell was calculated by the formula Papp = (ΔQ/Δt)/AC0, where ΔQ/Δt is the transport rate (nmol/s), which remained approximately constant in time, A is the well membrane area (0.6 cm^2), and C0 is the initial concentration of the four lignans (μM). The efflux rate (ER) was calculated by the formula ER = Papp (BL → AP)/Papp(AP → BL).

| SMILES | Total amount of analyte in bile (rat liver; CCl4-intoxicated rats) | Total amount of analyte in liver (rat liver; CCl4-intoxicated rats) | Total amount of analyte in bile (rat liver; Control rats) | Total amount of analyte in liver (rat liver; Control rats) | AUC at 10 μM ([1]; pH 7.4, CCl4-intoxicated rats) | AUC at 10 μM ([1]; pH 7.4, Control rats) | P-glycoprotein (P-gp) substrate classification according to Papp and ER (P-glycoprotein (P-gp)) |
| --- | --- | --- | --- | --- | --- | --- | --- |
| COc1cc2c(c(OC)c1OC)-c1c(cc(OC)c(OC)c1OC)C[C@H](C)[C@@H](C)C2 [Deoxyshisandrin, deoxyshisandrin] | 0.75 ± 0.07 µg | 14.57 ± 2.41 µg | 1.29 ± 0.30 µg | 9.71 ± 1.32 µg | 3620 ± 100 ng·h/mL | 3090 ± 120 ng·h/mL | some efflux trend |
| COc1cc2c(c(OC)c1OC)-c1c(cc(OC)c(OC)c1OC)C[C@](C)(O)[C@@H](C)C2 [Schisandrin, schisandrin] | 1.06 ± 0.14 µg | 19.55 ± 2.07 µg | 1.15 ± 0.27 µg | 11.19 ± 1.18 µg | 3860 ± 70 ng·h/mL | 3230 ± 110 ng·h/mL | – |
